# How the values were obtained:
# Type in all cases: in vivo
# [1] = tested on: tobacco budworm (Heliothis virescens); test: Method E: Heliothis virescens screen; conditions: concentration 100 ppm; egg dip; after 6 days
# Description: METHOD E: Heliothis Virescens Screen
# A Petri dish whose bottom is covered with filter paper and which contains about 5 ml of culture medium is prepared. Pieces of filter paper with about 30, 24-hour-old eggs of the tobacco budworm (Heliothis virescens) are dipped into an aqueous solution of the formulated preparation to be examined for about 5 seconds and subsequently placed into the Petri dish. A further 200 μl of the aqueous solution are dropped over the culture medium. The Petri dish is closed and then kept at about 25° C. in a climatized chamber. After 6 days storage, the effect of the preparation on the eggs and the larvae which may have hatched from these is determined. Compound number 1-1 gave at least 50% control of tobacco budworm with the concentration at 100 ppm.
# [2] = tested on: Ctenocephalides felis (Cat flea); test: Method A: screening method to test systemicity against Ctenocephalides felis (artificial dog test, treated bovine blood); conditions: test concentration 1 ppm in bovine blood; 10 adults; assessment at 24 and 48 hours
# Description: METHOD A: Screening method to test systemicity of compounds against Ctenocephalides felis (Cat flea)
# A test container was filled with 10 adults of Ctenocephalides felis. A glass cylinder was closed on one end with parafilm and placed on top of the test container. The test compound solution was then pipetted into bovine blood and added to the glass cylinder. The treated Ctenocephalides felis were held in this artificial dog test (blood 37° C., 40-60% relative humidity; Ctenocephalides felis 20-22° C., 40-60% relative humidity) and assessment performed at 24 and 48 hours after application.
# [3] = tested on: Rhipicephalus sanguineus (Brown dog tick); test: Method D: screening method to test contact activity against Rhipicephalus sanguineus; conditions: test concentration 10 ppm; filter paper contact; L1 larvae; 24 hours after application
# Description: METHOD D: Screening method to test contact activity against Rhipicephalus sanguineus (Brown dog tick)
# Solutions of the test compounds were dropped onto filter paper, dried and the filter paper placed into test tubes and infested with 20-30 larvae (L1) of Rhipicephalus sanguineus and the tubes closed with a clip. The treated Rhipicephalus sanguineus were held in a climate chamber (25° C., 90% RH) and the percentage efficacy assessed 24 hours after application in comparison with the untreated control.
# [4] = tested on: Frankliniella occidentalis; test: Method F: Thrip (Frankliniella occidentalis) screen; conditions: concentration 100 ppm; French bean leaf dip; mixed population; after 7 days
# Description: METHOD F: Thrip (Frankliniella occidentalis) Screen
# French bean plants are cut at the base of the stem and transferred into bottles filled with tap water. The leaves are then dipped for 5 seconds into an aqueous solution of the formulated preparation to be examined. After the solution has run off, the leaves are infested with 20-30 individuals of a mixed population of flower thrips (Frankliniella occidentalis) and then stored in a controlled-environment cabinet at approx. 25° C. After 7 days storage, the effect of the preparation on the thrips is determined. Compound number 1-1 gave at least 70% control of Frankliniella occidentalis at the concentration of 100 ppm.
# Nilaparvata lugens = test: Method C: Rice leafhopper screen; conditions: foliar, 144 h, read-out: control of Nilaparvata lugens (mortality among leafhopper larvae)
# Description: METHOD C: Rice leafhopper screen
# The leaves of rice plants are dipped for 5 seconds into an aqueous solution of the formulated preparation to be examined. After the solution has run off, the rice plants are placed in a Petri dish and populated with about 20 larvae (L3 stage) of the rice leafhopper species Nilaparvata lugens. The Petri dish is closed and then stored in a climatized chamber (16 hours of light/day, 25° C., 40-60% relative atmospheric humidity). After 6 days storage, the mortality among the leafhopper larvae is determined. Compound number 1-1 gave at least 60% control of Nilaparvata lugens with the concentration of 10 ppm.
# [5] = tested on: Diabrotica undecimpunctata (southern corn rootworm); test: Method B: Diabrotica undecimpunctata (southern corn rootworm) screen; conditions: concentration 10 ppm; eggs on filter paper with maize seed; assessed 6 days after application
# Text: METHOD B: Diabrotica undecimpunctata (southern corn rootworm) screen
# Two days before application, seeds of maize were soaked in water under warm conditions to elicit fast germination. One day before application, eggs of Diabrotica undecimpunctata were transferred to one half of a Japanese filter paper placed in a plastic petri dish. Afterwards, a sprouted maize seed was placed on a moistened pad beside the filter paper. Three drops of 200 microlitres of test compound solution were carefully pipetted onto the egg. The remainder of the solution was placed on the maize and then the Petri dish was closed. The treated eggs in the Petri dishes were held in a climate chamber for 6 days. The compound efficacy (percentage of dead eggs and/or larvae in comparison to untreated control) was assessed 6 days after application using a binocular microscope. Compound number 1-1 gave at least 60% control with the concentration at 10 ppm.
Structure (SMILES),control of tobacco budworm (effect on eggs and larvae) [1],control of Ctenocephalides felis [2],control (percentage efficacy in comparison with untreated control) [3],control of Frankliniella occidentalis [4],mortality at 10 ppm (Nilaparvata lugens),control (percentage of dead eggs and/or larvae in comparison to untreated control) [5]
"C=CN(C)c1c(S(=O)(=O)C(F)(F)F)c(C#N)nn1-c1c(Cl)cc(C(F)(F)F)cc1Cl [Compound 1-1, 1-[2,6-dichloro-4-(trifluoromethyl)phenyl]-5-[methyl(vinyl)amino]-4-[(trifluoromethyl)sulfonyl]-1H-pyrazole-3-carbonitrile]",at least 50%,at least 50%,at least 50%,at least 70%,≥ 60%,at least 60%
"CN(CCI)c1c(S(=O)(=O)C(F)(F)F)c(C#N)nn1-c1c(Cl)cc(C(F)(F)F)cc1Cl [Intermediate Example 2, 1-[2,6-dichloro-4-(trifluoromethyl)phenyl]-5-[(2-iodoethy)(methyl)amino]-4-[(trifluoromethyl)sulfonyl]-1H-pyrazole-3-carbonitrile]",–,at least 70%,–,–,–,–

# Source: patent US7678384B2, “Vinylaminopyrazole derivatives as pesticides” (Merial Limited, priority 2004, dated 2010)
